According to ChEMBL document CHEMBL1201862, “PubChem BioAssay data set” (2004):
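Compound exposure: 48 hours, 5 concentrations, 96-well plates. GI50 is the concentration that inhibits growth by half.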 Calls of active or inactive are those of the source. Rule as the data show it: active = GI50 up to about 1.1 µM and inactive = higher.

What was measured:
Test in all cases: NCI tumour cell line growth inhibition, 48 h
[1] = system: HCC 2998
[2] = system: MDA-MB-435
[3] = system: MOLT-4
[4] = system: UACC-257
[5] = system: 786-0
[6] = system: A549
[7] = system: CCRF-CEM
[8] = system: NCI-H522
[9] = system: TK-10
[10] = system: DU-145
[11] = system: OVCAR-5
[12] = system: SF-539
[13] = system: COLO 205
[14] = system: HOP-92
[15] = system: SN12C
[16] = system: SK-MEL-2
[17] = system: HL-60
[18] = system: T47D
[19] = system: SF-295
[20] = system: NCI/ADR-RES

| SMILES | GI50 [1] | GI50 [2] | GI50 [3] | GI50 [4] | GI50 [5] | GI50 [6] | GI50 [7] | GI50 [8] | GI50 [9] | GI50 [10] | GI50 [11] | GI50 [12] | GI50 [13] | GI50 [14] | GI50 [15] | GI50 [16] | GI50 [17] | GI50 [18] | GI50 [19] | GI50 [20] |
| --- | --- | --- | --- | --- | --- | --- | --- | --- | --- | --- | --- | --- | --- | --- | --- | --- | --- | --- | --- | --- |
| C#CCN1CCN(C(=S)N/N=C(\C)c2ccccn2)CC1 | 0.568 µM (active) | 1.49 µM (inactive) | 0.01 µM (active) | < 0.014 µM (active) | 0.0721 µM (active) | 3.12 µM (inactive) | 0.01 µM (active) | 0.0552 µM (active) | 3.28 µM (inactive) | 1.48 µM (inactive) | 0.069 µM (active) | 1.49 µM (inactive) | 0.01 µM (active) | 0.166 µM (active) | 0.232 µM (active) | 0.262 µM (active) | 0.01 µM (active) | 0.0016 µM (active) | 0.632 µM (active) | 0.01 µM (active) |
| O=[N+]([O-])c1ccc(/C(=N/c2ccccc2)SS/C(=N\c2ccccc2)c2ccc([N+](=O)[O-])o2)o1 | 1.59 µM (inactive) | 2.1 µM (inactive) | 2.51 µM (inactive) | 2.11 µM (inactive) | 1.4 µM (inactive) | 1.91 µM (inactive) | 2.03 µM (inactive) | 0.243 µM (active) | 3.13 µM (inactive) | 1.69 µM (inactive) | 2.08 µM (inactive) | 0.83 µM (active) | 1.51 µM (inactive) | 2.93 µM (inactive) | 1.94 µM (inactive) | 2.51 µM (inactive) | 2.09 µM (inactive) | 2.2 µM (inactive) | 2.76 µM (inactive) | 1.86 µM (inactive) |
| COc1ccc(-c2cc(-c3ccc(Nc4ccnc5cc(Cl)ccc45)cc3)[nH]c(=O)c2C#N)c2ccccc12 | 5.51 µM (inactive) | 1.87 µM (inactive) | 2.13 µM (inactive) | 24.9 µM (inactive) | 3.4 µM (inactive) | 18.1 µM (inactive) | 1.09 µM (active) | 1.79 µM (inactive) | 8.63 µM (inactive) | 5.33 µM (inactive) | 41.3 µM (inactive) | 1.82 µM (inactive) | 2.44 µM (inactive) | 3.84 µM (inactive) | 11.4 µM (inactive) | 14.1 µM (inactive) | 3.03 µM (inactive) | 1.88 µM (inactive) | 17.7 µM (inactive) | > 100 µM (inactive) |
| CC1=CC23C(COC(=O)C24CO4)C(C(=O)O)=CC3C1C (stereo not given) | 15.4 µM (inactive) | 23.1 µM (inactive) | 17.4 µM (inactive) | 29 µM (inactive) | 5.09 µM (inactive) | 26.1 µM (inactive) | 5.86 µM (inactive) | 1.37 µM (inactive) | 21.2 µM (inactive) | 28.1 µM (inactive) | 24.4 µM (inactive) | 15 µM (inactive) | 24.7 µM (inactive) | 8.24 µM (inactive) | 3.32 µM (inactive) | 3.08 µM (inactive) | 15 µM (inactive) | 6.21 µM (inactive) | 24.3 µM (inactive) | 15.3 µM (inactive) |
| Nc1nc(N)c2cc(-c3ccccc3)cnc2n1 | 33 µM (inactive) | > 10 µM (inactive) | 9.89 µM (inactive) | 14.2 µM (inactive) | 9.89 µM (inactive) | 9.44 µM (inactive) | 20.1 µM (inactive) | 21.6 µM (inactive) | 16.3 µM (inactive) | > 10 µM (inactive) | 14.6 µM (inactive) | 14.7 µM (inactive) | 14.3 µM (inactive) | 12.2 µM (inactive) | 12.2 µM (inactive) | 33 µM (inactive) | 13.3 µM (inactive) | 36.8 µM (inactive) | 17 µM (inactive) | 24.4 µM (inactive) |
| CC1=C(/C=C/C(C)=C/C=C/C(C)=C/C(=O)OCC2OC(n3cc(F)c(=O)[nH]c3=O)CC2OC(=O)/C=C(C)/C=C/C=C(C)/C=C/C2=C(C)CCCC2(C)C)C(C)(C)CCC1 (stereo not given) | 0.132 µM (active) | 13.3 µM (inactive) | 1.07 µM (active) | 9.23 µM (inactive) | 1.15 µM (inactive) | 0.402 µM (active) | 0.684 µM (active) | 8.2 µM (inactive) | 21.6 µM (inactive) | 1.27 µM (inactive) | > 45.3 µM (inactive) | 0.314 µM (active) | 18.7 µM (inactive) | 1.25 µM (inactive) | 7.43 µM (inactive) | 58.6 µM (inactive) | 1.14 µM (inactive) | 15.7 µM (inactive) | 0.301 µM (active) | 5.21 µM (inactive) |
| OCC(O)CNc1ncnc2ccccc12 (stereo not given) | > 100 µM (inactive) | > 100 µM (inactive) | > 100 µM (inactive) | > 100 µM (inactive) | > 100 µM (inactive) | > 100 µM (inactive) | > 100 µM (inactive) | > 100 µM (inactive) | > 100 µM (inactive) | > 100 µM (inactive) | > 100 µM (inactive) | – | > 100 µM (inactive) | > 100 µM (inactive) | > 100 µM (inactive) | > 100 µM (inactive) | > 100 µM (inactive) | > 100 µM (inactive) | > 100 µM (inactive) | > 100 µM (inactive) |
| CC(C)NC(=O)OCc1c(COC(=O)NC(C)C)c(-c2ccc[n+](COC(=O)CC(C)(C)C)c2)n2c1CCC2 | > 100 µM (inactive) | > 100 µM (inactive) | > 100 µM (inactive) | > 100 µM (inactive) | 38.4 µM (inactive) | > 100 µM (inactive) | > 100 µM (inactive) | 31.6 µM (inactive) | > 100 µM (inactive) | > 100 µM (inactive) | > 100 µM (inactive) | 84.9 µM (inactive) | 89.3 µM (inactive) | > 100 µM (inactive) | 73.8 µM (inactive) | > 100 µM (inactive) | > 100 µM (inactive) | > 100 µM (inactive) | 60.5 µM (inactive) | 71 µM (inactive) |
| OC(Cc1cnnc2ccccc12)C(Cl)(Cl)Cl (stereo not given) | > 10 µM (inactive) | > 10 µM (inactive) | > 10 µM (inactive) | > 10 µM (inactive) | > 10 µM (inactive) | > 10 µM (inactive) | > 10 µM (inactive) | > 10 µM (inactive) | > 10 µM (inactive) | > 10 µM (inactive) | – | > 10 µM (inactive) | > 10 µM (inactive) | > 10 µM (inactive) | > 10 µM (inactive) | > 10 µM (inactive) | > 10 µM (inactive) | > 10 µM (inactive) | > 10 µM (inactive) | > 10 µM (inactive) |
| CC(=O)Nc1ccc(C(=O)N[C@@H]2C(=O)N3[C@@H]2SC(C)(C)[C@@H]3C(=O)O)cn1 | > 100 µM (inactive) | > 100 µM (inactive) | > 100 µM (inactive) | > 100 µM (inactive) | > 100 µM (inactive) | > 100 µM (inactive) | > 100 µM (inactive) | – | > 100 µM (inactive) | > 100 µM (inactive) | > 100 µM (inactive) | – | > 100 µM (inactive) | > 100 µM (inactive) | > 100 µM (inactive) | > 100 µM (inactive) | > 100 µM (inactive) | > 100 µM (inactive) | > 100 µM (inactive) | > 100 µM (inactive) |
| Nn1c(S)nnc1CCCCCCCCc1nnc(S)n1N | > 100 µM (inactive) | > 100 µM (inactive) | > 100 µM (inactive) | > 100 µM (inactive) | > 100 µM (inactive) | > 100 µM (inactive) | 90.8 µM (inactive) | > 100 µM (inactive) | – | > 100 µM (inactive) | > 100 µM (inactive) | > 100 µM (inactive) | > 100 µM (inactive) | > 100 µM (inactive) | > 100 µM (inactive) | > 100 µM (inactive) | > 100 µM (inactive) | > 100 µM (inactive) | > 100 µM (inactive) | > 100 µM (inactive) |
| CC(=O)O[C@H]1C(=O)[C@@]2(C)[C@H]([C@H](OC(=O)C3CCCCC3)[C@]3(O)C[C@H](OC(=O)[C@H](O)[C@@H](NC(=O)C4CCCCC4)C4CCCCC4)C(C)=C1C3(C)C)[C@]1(OC(C)=O)CO[C@@H]1C[C@@H]2O | 0.0442 µM (active) | 0.00256 µM (active) | 0.0151 µM (active) | 0.0389 µM (active) | 0.0171 µM (active) | 0.0326 µM (active) | 0.0234 µM (active) | 0.00658 µM (active) | 0.0451 µM (active) | 0.151 µM (active) | 0.0224 µM (active) | 0.0366 µM (active) | 0.00615 µM (active) | 0.0427 µM (active) | 0.0942 µM (active) | – | 0.00586 µM (active) | 0.0219 µM (active) | 0.0321 µM (active) | 1.07 µM (active) |
| CCN1CCN(c2nc3ccccc3nc2C(=O)c2ccc(OC)cc2)CC1 | > 100 µM (inactive) | 44.3 µM (inactive) | 28.8 µM (inactive) | 16.5 µM (inactive) | 19.4 µM (inactive) | 23.8 µM (inactive) | – | 53.6 µM (inactive) | 22.6 µM (inactive) | > 100 µM (inactive) | 56.8 µM (inactive) | 26.4 µM (inactive) | > 100 µM (inactive) | 18.3 µM (inactive) | – | 41 µM (inactive) | > 100 µM (inactive) | > 100 µM (inactive) | 32.7 µM (inactive) | 45.1 µM (inactive) |
| N#C[C@](CO)(NC(=O)OCc1ccccc1)C(F)F | > 100 µM (inactive) | > 100 µM (inactive) | > 100 µM (inactive) | > 100 µM (inactive) | > 100 µM (inactive) | > 100 µM (inactive) | > 100 µM (inactive) | > 100 µM (inactive) | > 100 µM (inactive) | > 100 µM (inactive) | > 100 µM (inactive) | – | > 100 µM (inactive) | > 100 µM (inactive) | – | > 100 µM (inactive) | > 100 µM (inactive) | > 100 µM (inactive) | > 100 µM (inactive) | > 100 µM (inactive) |
